System: human immunodeficiency virus type 1 (HIV-1)
Assay: microbe, parasite or virus in culture
Format: cell-based
Details: Human immunodeficiency virus 1, HeLa, 48 h, HIV-1 luciferase reporter, HeLa cells, 48 hours after infection

Row | SMILES | EC50 [nM]
1 | CC(C)(C)[C@@H](CO)n1cc(C(=O)O)c(=O)c2cc(Cc3cccc(Cl)c3F)c(NCCO)nc21 [Example 2R] | < 10
2 | O=C(O)c1cn(CCO)c2ncc(Cc3cccc(Cl)c3F)cc2c1=O [Example 4D] | > 100
3 | COc1nc2c(cc1CNCc1c(F)cc(F)cc1F)c(=O)c(C(=O)O)cn2[C@H](CO)C(C)C [Example 12G] | > 100
4 | COc1nc2c(cc1Nc1ccc(Cl)c(F)c1)c(=O)c(C(=O)O)cn2[C@H](CO)C(C)C [Example 20PP, (S)-6-(4-chloro-3-fluorophenylamino)-1-(1-hydroxy-3-methylbutan-2-yl)-7-methoxy-4-oxo-1,4-dihydro-1,8-naphthyridine-3-carboxylic acid] | > 100
5 | CC(C)[C@@H](CO)n1cc(C(=O)O)c(=O)c2nc(Cc3ccc(F)c(F)c3)ccc21 [Example 8B, 6-(3,4-Difluoro-benzyl)-1-((S)-1-hydroxymethyl-2-methyl-propyl)-4-oxo-1,4-dihydro-[1.5]naphthyridine-3-carboxylic acid] | > 100
6 | COc1nc2c(cc1Cc1cccc(Cl)c1F)c(=O)c(C(=O)O)cn2[C@H]1CCCC[C@@H]1O [Example 1P] | > 100
7 | CCC[C@@H](CO)n1cc(C(=O)O)c(=O)c2cc(Cc3cccc(Cl)c3F)ncc21 [Example 5I] | > 100
8 | COc1nc2c(cc1CCc1ccc(F)cc1F)c(=O)c(C(=O)O)cn2[C@H](CO)C(C)C [Example 19, (S)-6-(2,4-difluorophenethyl)-1-(1-hydroxy-3-methylbutan-2-yl)-7-methoxy-4-oxo-1,4-dihydro-1,8-naphthyridine-3-carboxylic acid] | > 100
9 | CC(C)(C)[C@@H](CO)n1cc(C(=O)O)c(=O)c2cc(Cc3cccc(Cl)c3F)c(OCCO)nc21 [Example 2E] | < 10
10 | COc1nc2c(cc1NCc1ccccc1)c(=O)c(C(=O)O)cn2[C@H](CO)C(C)C [Example 20O, (S)-6-(benzylamino)-1-(1-hydroxy-3-methylbutan-2-yl)-7-methoxy-4-oxo-1,4-dihydro-1,8-naphthyridine-3-carboxylic acid] | > 100
11 | CC(C)(C)[C@@H](CO)n1cc(C(=O)O)c(=O)c2cc(Cc3cccc(Cl)c3F)c(OCCN3CCOCC3)nc21 [Example 2M] | 10 to 100
12 | COc1cc2c(cc1Oc1c(F)cc(F)cc1F)c(=O)c(C(=O)O)cn2[C@H](CO)C(C)(C)C [Example 29F] | > 100
13 | CN(C)CCCOc1nc2c(cc1Cc1cccc(Cl)c1F)c(=O)c(C(=O)O)cn2[C@H](CO)C(C)(C)C [Example 2L] | 10 to 100
14 | COCCOc1nc2c(cc1Cc1cccc(Cl)c1F)c(=O)c(C(=O)O)cn2[C@H](CO)C(C)(C)C [Example 2H] | < 10
15 | CC(C)[C@@H](CO)n1cc(C(=O)O)c(=O)c2nc(Cc3cccc(Cl)c3F)c(O)nc21 [Example 11A, (S)-2-(3-chloro-2-fluorobenzyl)-3-hydroxy-5-(1-hydroxy-3-methylbutan-2-yl)-8-oxo-5,8-dihydropyrido[2,3-b]pyrazine-7-carboxylic acid] | > 100
16 | COc1nc2c(cc1Nc1ccc(F)cc1)c(=O)c(C(=O)O)cn2[C@H](CO)C(C)C [Example 20QQ, (S)-6-(4-fluorophenylamino)-1-(1-hydroxy-3-methylbutan-2-yl)-7-methoxy-4-oxo-1,4-dihydro-1,8-naphthyridine-3-carboxylic acid] | > 100
17 | O=C(O)c1cn([C@@H](CO)c2ccccc2)c2cnc(Cc3cccc(Cl)c3F)cc2c1=O [Example 5P] | > 100
18 | CCCn1cc(C(=O)NN)c(=O)c2c(N)nc(SC)nc21 [Example 7C] | > 100
19 | CC(C)[C@@H](CO)n1cc(C(=O)O)c(=O)c2nc(Cc3cccc(Cl)c3)ccc21 [Example 8C, 6-(3-Chloro-benzyl)-1-((S)-1-hydroxymethyl-2-methyl-propyl)-4-oxo-1,4-dihydro-[1,5]naphthyridine-3-carboxylic acid] | > 100
20 | COc1nc2c(cc1-c1ccc(OCc3ccccc3)c(F)c1)c(=O)c(C(=O)O)cn2[C@H](CO)C(C)C [Example 17J] | > 100
21 | COCCCCOc1nc2c(cc1Cc1cccc(Cl)c1F)c(=O)c(C(=O)O)cn2[C@H](CO)C(C)(C)C [Example 2J] | 10 to 100
22 | COc1nc2c(cc1Cc1cccc(Cl)c1F)c(=O)c(C(=O)NCCO)cn2[C@H](CO)C(C)C [Example 2II] | > 100
23 | CC(C)(C)[C@@H](CO)n1cc(C(=O)O)c(=O)c2cc(NCc3c(F)cc(F)cc3F)c(N3CCOCC3)nc21 [Example 27E, (S)-1-(1-hydroxy-3,3-dimethylbutan-2-yl)-7-morpholino-4-oxo-6-(2,4,6-trifluorobenzylamino)-1,4-dihydro-1,8-naphthyridine-3-carboxylic acid] | 10 to 100
24 | COc1nc2c(cc1NCc1cccc(Cl)c1)c(=O)c(C(=O)O)cn2[C@H](CO)C(C)C [Example 20I, (S)-6-(3-chlorobenzylamino)-1-(1-hydroxy-3-methylbutan-2-yl)-7-methoxy-4-oxo-1,4-dihydro-1,8-naphthyridine-3-carboxylic acid] | > 100

Row | SMILES | EC50 [nM]
25 | CC(C)[C@H]1COc2nc(Cc3cccc(Cl)c3F)cc3c(=O)c(C(=O)O)cn1c23 [Example 5E, (S)-8-(3-chloro-2-fluoro-benzyl)-3-isopropyl-6-oxo-2,3-dihydro-6H-1-oxa-3a,9-diaza-phenalene-5-carboxylic acid] | > 100
26 | COc1nc2c(cc1NCc1cc(F)ccc1F)c(=O)c(C(=O)O)cn2[C@H](CO)C(C)C [Example 20CC, (S)-6-(2,5-difluorobenzylamino)-1-(1-hydroxy-3-methylbutan-2-yl)-7-methoxy-4-oxo-1,4-dihydro-1,8-naphthyridine-3-carboxylic acid] | > 100
27 | O=C(O)c1c[nH]c2cnc(Cc3cccc(Cl)c3)nc2c1=O [Example 10A, 2-(3-chlorobenzyl)-8-oxo-5,8-dihydropyrido[3,2-d]pyrimidine-7-carboxylic acid] | > 100
28 | COc1nc2c(cc1N1CCCc3ccccc31)c(=O)c(C(=O)O)cn2[C@H](CO)C(C)C [Example 17O] | > 100
29 | COc1nc2c(cc1NCCc1ccccc1F)c(=O)c(C(=O)O)cn2[C@H](CO)C(C)C [Example 20S, (S)-6-(2-fluorophenethylamino)-1-(1-hydroxy-3-methylbutan-2-yl)-7-methoxy-4-oxo-1,4-dihydro-1,8-naphthyridine-3-carboxylic acid] | > 100
30 | O=C(O)c1cn([C@H](CO)CC2CCCCC2)c2cnc(Cc3cccc(Cl)c3F)cc2c1=O [Example 5N] | > 100
31 | CC(C)(C)[C@@H](CO)n1cc(C(=O)O)c(=O)c2cc(Cc3cccc(Cl)c3F)c(NCCCN3CCCC3=O)nc21 [Example 2EE] | < 10
32 | CCCn1cc(C(=O)OC(=O)c2ccccc2)c(=O)c2c(N)nc(SC)nc21 [Example 7A] | > 100
33 | C[C@H](CO)n1cc(C(=O)O)c(=O)c2cc(Cc3cccc(Cl)c3F)ncc21 [Example 5K] | > 100
34 | CC(C)[C@@H](CO)n1cc(C(=O)O)c(=O)c2cc(OCc3ccc(F)cc3)ccc21 [Example 23A, (S)-6-(4-fluorobenzyloxy)-1-(1-hydroxy-3-methylbutan-2-yl)-4-oxo-1,4-dihydroquinoline-3-carboxylic acid] | > 100
35 | COc1nc2c(cc1-c1ccncc1)c(=O)c(C(=O)O)cn2[C@H](CO)C(C)C [Example 17G] | > 100
36 | COCCNc1nc2c(cc1Cc1cccc(Cl)c1F)c(=O)c(C(=O)O)cn2[C@H](CO)C(C)(C)C [Example 2T] | < 10
37 | CC(C)(C)[C@@H](CO)n1cc(C(=O)O)c(=O)c2cc(Cc3cccc(Cl)c3F)c(F)nc21 [Example 2JJ] | 10 to 100
38 | COc1nc2c(cc1Cc1cccc(Cl)c1F)c(=O)c(C(=O)O)cn2C(CO)CO [Example 1M] | > 100
39 | COc1cc2c(cc1OCc1cccc(Cl)c1F)c(=O)c(C(=O)O)cn2[C@H](CO)C(C)(C)C [Example 29A, (S)-6-(3-chloro-2-fluorobenzyloxy)-1-(1-hydroxy-3,3-dimethylbutan-2-yl)-7-methoxy-4-oxo-1,4-dihydroquinoline-3-carboxylic acid] | > 100
40 | CC(C)(C)[C@@H](CO)n1cc(C(=O)O)c(=O)c2cc(Cc3cccc(Cl)c3F)c(OCCCCO)nc21 [Example 2G] | 10 to 100
41 | COc1nc2c(cc1NCc1ccc(F)cc1F)c(=O)c(C(=O)O)cn2[C@H](CO)C(C)C [Example 20R, (S)-6-(2,4-difluorobenzylamino)-1-(1-hydroxy-3-methylbutan-2-yl)-7-methoxy-4-oxo-1,4-dihydro-1,8-naphthyridine-3-carboxylic acid] | 10 to 100
42 | CC(C)(C)[C@@H](CO)n1cc(C(=O)O)c(=O)c2cc(Cc3cccc(Cl)c3F)c(OCCCO)nc21 [Example 2F] | < 10
43 | COc1cc2c(nc1Cc1cccc(Cl)c1F)c(=O)c(C(=O)O)cn2[C@H](CO)C(C)C [Example 8D, 6-(3-Chloro-2-fluoro-benzyl)-1-((S)-1-hydroxymethyl-2-methyl-propyl)-7-methoxy-4-oxo-1,4-dihydro-[1.5]naphthyridine-3-carboxylic acid] | > 100
44 | CC(C)(C)[C@@H](CO)n1cc(C(=O)O)c(=O)c2cc(NCc3ccc(F)cc3)ccc21 [Example 22B, (S)-6-(4-fluorobenzylamino)-1-(1-hydroxy-3,3-dimethylbutan-2-yl)-4-oxo-1,4-dihydroquinoline-3-carboxylic acid] | 10 to 100
45 | CCC(C)C(CO)n1cc(C(=O)O)c(=O)c2cc(Cc3cccc(Cl)c3F)ncc21 (stereo not drawn) [Example 5H] | 10 to 100
46 | COc1nc2c(cc1Cc1cccc(Cl)c1F)c(=O)c(C(=O)O)cn2[C@H](CO)C(C)(C)C [Example 1H] | < 10
47 | CC(C)[C@@H](CO)n1cc(C(=O)O)c(=O)c2cc(NCc3ccc(F)cc3)c(N3CCOCC3)nc21 [Example 24A, (S)-6-(4-fluorobenzylamino)-1-(1-hydroxy-3-methylbutan-2-yl)-7-morpholino-4-oxo-1,4-dihydro-1,8-naphthyridine-3-carboxylic acid] | > 100
48 | CC(C)(C)[C@@H](CO)n1cc(C(=O)O)c(=O)c2cc(Cc3cccc(Cl)c3F)c(N3CC[C@@H](O)C3)nc21 [Example 2W] | 10 to 100
